Laboratory results as given in ChEMBL document CHEMBL1221235, “Novel Notch-sparing gamma-secretase inhibitors derived from a peroxisome proliferator-activated receptor agonist library” (Bioorg Med Chem Lett, 2010).
Active and inactive are the calls of the source. The calls are words filed in the database; no cut-off is given here.

What was measured:
[1] = target: T1, Gamma-secretase (Homo sapiens) (UniProt Q96BI3+Q9NZ42+Q8WW43+P49768+Q92542+P49810); test: Inhibition of gamma-secretase in HEK293 cells co-overexpressing APP Swedish mutant assessed as inhibition of amyloid beta 42 production at 100 uM by luciferase reporter gene assay relative to DAPT; assay type: cell-based; details: for residual activity: values are per cent of control
Gamma-secretase [2] = test: Inhibition of gamma-secretase in HEK293 cells co-overexpressing APP Swedish mutant assessed as inhibition of amyloid beta 42 production by luciferase reporter gene assay; assay type: cell-based, Homo sapiens
Gamma-secretase [3] = test: Inhibition of gamma-secretase in HEK293 cells co-overexpressing APP Swedish mutant assessed as inhibition of amyloid beta 40 production by luciferase reporter gene assay; assay type: cell-based, Homo sapiens
[4] = target: T1, Gamma-secretase (Homo sapiens); test: Inhibition of gamma-secretase in HEK293 cells co-overexpressing APP Swedish mutant assessed as inhibition of amyloid beta 40 production at 100 uM by luciferase reporter gene assay relative to DAPT; assay type: cell-based; details: for residual activity: values are per cent of control
Gamma-secretase [5] = test: Inhibition of gamma-secretase in HEK293 cells co-overexpressing NotchdeltaE assessed as inhibition of notch cleavage by luciferase reporter gene assay; assay type: cell-based, Homo sapiens
[6] = target: T1, Gamma-secretase (Homo sapiens); test: Inhibition of gamma-secretase in HEK293 cells co-overexpressing APP Swedish mutant assessed as inhibition of amyloid beta 40 production at 30 uM by luciferase reporter gene assay relative to DAPT; assay type: cell-based; details: values are per cent of control
[7] = target: T1, Gamma-secretase (Homo sapiens); test: Inhibition of gamma-secretase in HEK293 cells co-overexpressing APP Swedish mutant assessed as inhibition of amyloid beta 42 production at 30 uM by luciferase reporter gene assay relative to DAPT; assay type: cell-based; details: values are per cent of control
[8] = target: T1, Gamma-secretase (Homo sapiens); test: Inhibition of gamma-secretase in HEK293 cells co-overexpressing NotchdeltaE assessed as inhibition of notch cleavage at 3 uM by luciferase reporter gene assay relative to DAPT; assay type: cell-based; details: values are per cent of control
[9] = target: T1, Gamma-secretase (Homo sapiens); test: Inhibition of gamma-secretase in HEK293 cells co-overexpressing NotchdeltaE assessed as inhibition of notch cleavage at 30 uM by luciferase reporter gene assay relative to DAPT; assay type: cell-based; details: values are per cent of control
[10] = target: T1, Gamma-secretase (Homo sapiens); test: Inhibition of gamma-secretase in HEK293 cells co-overexpressing APP Swedish mutant assessed as inhibition of amyloid beta 40 production at 3 uM by luciferase reporter gene assay relative to DAPT; assay type: cell-based; details: values are per cent of control
[11] = target: T1, Gamma-secretase (Homo sapiens); test: Inhibition of gamma-secretase in HEK293 cells co-overexpressing APP Swedish mutant assessed as inhibition of amyloid beta 42 production at 3 uM by luciferase reporter gene assay relative to DAPT; assay type: cell-based; details: values are per cent of control
[12] = target: T1, Gamma-secretase (Homo sapiens); test: Inhibition of gamma-secretase in HEK293 cells co-overexpressing NotchdeltaE assessed as inhibition of notch cleavage at 100 uM by luciferase reporter gene assay relative to DAPT; assay type: cell-based; details: values are per cent of control
[13] = target: T1, Gamma-secretase (Homo sapiens); test: Inhibition of gamma-secretase in HEK293 cells co-overexpressing APP Swedish mutant assessed as inhibition of amyloid beta 40 production at 1 uM by luciferase reporter gene assay relative to DAPT; assay type: cell-based; details: values are per cent of control
[14] = target: T1, Gamma-secretase (Homo sapiens); test: Inhibition of gamma-secretase in HEK293 cells co-overexpressing APP Swedish mutant assessed as inhibition of amyloid beta 42 production at 1 uM by luciferase reporter gene assay relative to DAPT; assay type: cell-based; details: values are per cent of control
[15] = target: T1, Gamma-secretase (Homo sapiens); test: Inhibition of gamma-secretase in HEK293 cells co-overexpressing NotchdeltaE assessed as inhibition of notch cleavage at 1 uM by luciferase reporter gene assay relative to DAPT; assay type: cell-based; details: for residual activity: values are per cent of control

IC50 (Gamma-secretase [2]) [µM] | IC50 (Gamma-secretase [3]) [µM] | IC50 (Gamma-secretase [5]) [µM] | residual activity [12] [%] | residual activity [1] [%] | residual activity [13] [%] | residual activity [4] [%] | residual activity [14] [%] | residual activity [15] [%] | Compound | other results
34.2 | 37.8 | > 100 |  |  |  |  |  |  | CC[C@H](Cc1ccc(OC)c(C(=O)NCc2ccc(C(F)(F)F)cc2)c1)C(=O)O | inhibition [1]: Active; inhibition [4]: Active
22.4 | 32.7 | > 100 |  |  |  |  |  |  | CC/C(=C\c1ccc(OC)c(C(=O)NCc2ccc(C(F)(F)F)cc2)c1)C(=O)O | 
82.5 | 215 | 53 |  |  |  |  |  |  | CSc1ccc(/C=C2/C(C)=C(CC(=O)O)c3cc(F)ccc32)cc1 [SULINDAC SULFIDE] | residual activity [6]: 88.6%; residual activity [7]: 60.3%; residual activity [8]: 90.7%; residual activity [9]: 43.9%; residual activity [10]: 98.4%; residual activity [11]: 97.1%
 |  |  | 84 | 133 | 118 | 136 | 119 |  | CCC(Cc1ccc(OC)c(CNC(=O)c2ccc(OCC(F)(F)F)cc2)c1)C(=O)O (stereo unspecified) | 
 |  |  |  | 139 | 114 | 132 | 109 |  | COc1ccc(CC(C)C(=O)O)cc1CNC(=O)c1ccc(C(F)(F)F)cc1 (stereo unspecified) | 
> 100 | > 100 | 24 |  |  |  |  |  |  | CC[C@@H](Cc1ccc(OC)c(C(=O)NCc2ccc(C(F)(F)F)cc2)c1)C(=O)O | inhibition [15]: Active
 |  |  | 0 |  | 89.5 |  | 101 | 31.2 | CCC(Cc1ccc(OC)c(CNC(=O)c2ccc(C(F)(F)F)cc2)c1)C(=O)O (stereo unspecified) | 
 |  |  | 8.9 | 15.2 | 82 | 41 | 88.5 | 102 | CCC(Cc1ccc(OC)c(C(=O)NCc2ccc(C(F)(F)F)cc2)c1)C(=O)O (stereo unspecified) | 
 |  |  |  | 145 | 103 | 119 | 103 |  | CCC(Cc1ccc(OC)c(CNC(=O)c2ccc(Oc3ccccc3)cc2)c1)C(=O)O (stereo unspecified) | 
 |  |  | 38.5 | 0 | 77.6 | 13 | 63.3 | 53.8 | CCC(Cc1ccc(F)c(C(=O)NCc2ccc(C(F)(F)F)cc2)c1)C(=O)O (stereo unspecified) | 
 |  |  | 6.8 | 106 | 89.8 | 63.2 | 99.7 | 6.3 | CCC(Cc1ccc(F)c(C(=O)NCc2ccc(Oc3ccccc3)cc2)c1)C(=O)O (stereo unspecified) | 
 |  |  |  | 104 | 104 | 112 | 102 |  | COc1ccc(CCC(=O)O)cc1CNC(=O)c1ccc(C(F)(F)F)cc1 | 
 |  |  | 0 | 55.7 | 90.6 | 42.6 | 87.4 | 67.2 | CCC(Cc1ccc(F)c(C(=O)NCc2ccc(OC(F)(F)F)cc2)c1)C(=O)O (stereo unspecified) | 
